Measured values published in patent US7071222B2, “Preparation containing a combination of 5-methylisoxazole-4-carboxylic acid-(4-trifluoromethyl)-anilide and N-(4-trifluoromethylphenyl)2-cyano-3-hydroxycrotonic acid amide” (Sanofi-Aventis Deuschland GmbH, priority 1996, dated 2006).

Key:
[1] = Oral administration of compound 1 or compound 2 on its own (background statement); assay type: in vivo; conditions: 5 mg or 10 mg per kg, each compound on its own
[2] = system: Adjuvant-induced arthritis; test: Adjuvant-induced arthritis, modification in accordance with Perper; assay type: in vivo, rats of a Lewis strain; conditions: Compound 1 10 mg/kg of rat, Compound 2 0 mg/kg; oral once daily day 1-12; determined day 18; vs control group
Experimental: Adjuvant-induced arthritis, modification in accordance with […] (Proc. Soc. exp. Biol. Med. 137, 506 (1971)) Male rats of a Lewis strain (Moellegard, Denmark) having a body weight of from 160 to 210 g are used as the experimental animals. On the 1st day, the animals are injected subcutaneously, into the tail root, with complete Freund's adjuvant containing a suspension of Mycobacterium butyricum in heavy paraffin oil (Difco; […] in paraffin oil; Merck). Compounds 1 and 2 are suspended in carboxymethyl cellulose (1% in water) and this suspension is administered orally. The compounds are administered once daily from the 1st to the 12th day of the experiment. The paw volume and the arthritis index are determined on the 18th day. The severity of the disorder is determined by measuring the volumes of both hind paws. The measurement is carried out by the water displacement method, using a 2060 plethysmometer (Rhema-Labortechnik, Hofheim, Germany). In addition, the arthritis index is determined on the 18th day after injection. [table] Animals forming a control group are only given the solvent (1% carboxymethyl cellulose in water). 6 animals are used for each dose and in the control group. A reduction in the increase in paw volume and a decrease in the arthritis index, as compared with the untreated control group, are used as the criteria for an effect having been achieved.

SMILES | effect of oral administration, compound on its own [1] | Decrease in arthritis index [2] [%] | Decrease in paw volume [2] [%]
Cc1oncc1C(=O)Nc1ccc(C(F)(F)F)cc1 [Compound 1, 5-methyl-4′-trifluoromethyl-4-isoxazolecarboxanilide] | does not have any significant effect | 58 | 74
C/C(O)=C(\C#N)C(=O)Nc1ccc(C(F)(F)F)cc1 [Compound 2, N-(4-trifluoromethylphenyl)-2-cyano-3-hydroxycrotonamide] | does not have any significant effect |  | 
